From the supplement of paper PMC13380429

Key:
Settings in all cases: 72 h
Caco-2 [1] = experiment: cell viability relative to DMSO; higher = less toxic
HepG2 [2] = experiment: as above
Vero E6 [3] = experiment: as above
U2OS [4] = experiment: as above
Calu-3 [5] = experiment: as above
Caco-2 [6] = experiment: relative viability EC50 (midpoint between 100% and the lowest measured viability); higher = less toxic
Vero E6 [7] = experiment: as above
U2OS [8] = experiment: as above
Calu-3 [9] = experiment: as above
Caco-2 [10] = experiment: drug sensitivity score (DSS) for viability; higher = more toxic; extreme values may be limits of the assay
HepG2 [11] = experiment: as above
Vero E6 [12] = experiment: as above
U2OS [13] = experiment: as above
Calu-3 [14] = experiment: as above
HepG2 [15] = experiment: relative viability EC50 (midpoint between 100% and the lowest measured viability); higher = less toxic

SMILES | cell viability (Caco-2 [1]; 1 nM) [%] | cell viability (Caco-2 [1]; 10 nM) [%] | cell viability (Caco-2 [1]; 100 nM) [%] | cell viability (Caco-2 [1]; 1000 nM) [%] | cell viability (Caco-2 [1]; 10000 nM) [%] | cell viability (HepG2 [2]; 1 nM) [%] | cell viability (HepG2 [2]; 10 nM) [%] | cell viability (HepG2 [2]; 100 nM) [%] | cell viability (HepG2 [2]; 1000 nM) [%] | cell viability (HepG2 [2]; 10000 nM) [%] | cell viability (Vero E6 [3]; 1 nM) [%] | cell viability (Vero E6 [3]; 10 nM) [%] | cell viability (Vero E6 [3]; 100 nM) [%] | cell viability (Vero E6 [3]; 1000 nM) [%] | cell viability (Vero E6 [3]; 10000 nM) [%] | cell viability (U2OS [4]; 1 nM) [%] | cell viability (U2OS [4]; 10 nM) [%] | cell viability (U2OS [4]; 100 nM) [%] | cell viability (U2OS [4]; 1000 nM) [%] | cell viability (U2OS [4]; 10000 nM) [%] | cell viability (Calu-3 [5]; 1 nM) [%] | cell viability (Calu-3 [5]; 10 nM) [%] | cell viability (Calu-3 [5]; 100 nM) [%] | cell viability (Calu-3 [5]; 1000 nM) [%] | cell viability (Calu-3 [5]; 10000 nM) [%] | relative viability EC50 (Caco-2 [6]) [µM] | relative viability EC50 (Vero E6 [7]) [µM] | relative viability EC50 (U2OS [8]) [µM] | relative viability EC50 (Calu-3 [9]) [µM] | drug sensitivity score (Caco-2 [10]) | drug sensitivity score (HepG2 [11]) | drug sensitivity score (Vero E6 [12]) | drug sensitivity score (U2OS [13]) | drug sensitivity score (Calu-3 [14]) | relative viability EC50 (HepG2 [15]) [µM]
CC(C)N(CCC(=O)c1ccc2ccccc2c1)Cc1ccccc1 | 90.3 | 94.8 | 94.4 | 97.7 | 99.5 | 98.4 | 91.6 | 99 | 101 | 66.6 | 96.2 | 98.7 | 99 | 96.3 | 87 | 99.2 | 98.2 | 93.5 | 96.7 | 95 | 97.6 | 102 | 102 | 97.5 | 92.1 | > 10 | > 10 | > 10 | > 10 | 0 | 1.4 | 0.3 | 0 | 0 | –
CCc1c(-c2ccccc2)c(-c2ccccc2)nn1-c1ccccc1-c1cccc(OCC(=O)O)c1 | 102 | 105 | 97.8 | 113 | 91.5 | – | – | – | – | – | 102 | 103 | 103 | 101 | 97.9 | 99.7 | 101 | 98 | 105 | 97.4 | 93.4 | 94.7 | 101 | 94 | 86.3 | > 10 | > 10 | > 10 | > 10 | 0 | – | 0 | 0 | 0.5 | –
CNC(=O)c1cccc(NC(=O)N2CCC(Oc3ccccc3Cl)CC2)c1 | 94.3 | 100 | 93.2 | 102 | 82.7 | 99.1 | 101 | 92.4 | 79.3 | 50.5 | 102 | 99.5 | 97 | 89.9 | 91 | 94.9 | 103 | 97.3 | 99.6 | 91.4 | 80.3 | 99.6 | 86.4 | 99.4 | 101 | > 10 | > 10 | > 10 | > 10 | 0.3 | 4.8 | 0 | 0 | 0 | –
CNc1nc(-c2ccc3c(N)n[nH]c3c2)cc(N2C[C@@H](C(=O)NC3CCCCC3)CC[C@H]2C)n1 | 106 | 106 | 102 | 79 | 58 | 103 | 108 | 101 | 72.4 | 53.9 | 97.1 | 94.9 | 98.6 | 91 | 71.9 | 93.7 | 101 | 95.9 | 91 | 62.3 | 93.5 | 93.3 | 87.5 | 77.3 | 48.1 | – | – | – | 0.737 | 4.8 | 5.7 | 2.3 | 3.2 | 5.9 | –
COc1ccc(-c2oc3cc(OC)ccc3c2C(=O)c2ccc(C#N)cc2)cc1 | 99.7 | 96.4 | 95.3 | 93.6 | 87.2 | 107 | 96.8 | 109 | 92.8 | 74.4 | 104 | 101 | 101 | 96.4 | 99 | 98.2 | 103 | 95.2 | 101 | 95.4 | 96.4 | 98.8 | 101 | 106 | 102 | > 10 | > 10 | > 10 | > 10 | 0 | 2 | 0 | 0 | 0 | –
COc1ccc(Cn2ccc3ccc(C(=O)NO)cc32)cc1 | 98 | 97 | 100 | 101 | 70.1 | 105 | 102 | 97.7 | 94.2 | 56.4 | 96.7 | 100 | 104 | 94.8 | 51.5 | 97.9 | 98.2 | 97.5 | 97 | 72.4 | 103 | 95.2 | 96.8 | 100 | 86.7 | – | – | – | > 10 | 1.2 | 3.2 | 3.4 | 1.6 | 0.1 | –
COc1ccc2[nH]cc(C3=CCNCC3)c2c1 | 90.7 | 107 | 99.6 | 106 | 98.4 | – | – | – | – | – | 101 | 98.7 | 104 | 105 | 100 | 95.7 | 103 | 96 | 102 | 98.8 | 92.3 | 90 | 95.1 | 96.1 | 101 | > 10 | > 10 | > 10 | > 10 | 0 | – | 0 | 0 | 0 | –
COc1ccc2nc3[nH]nc(C)c3c(NCCOCCO)c2c1 | 103 | 102 | 89.6 | 100 | 96.8 | 104 | 97.2 | 102 | 87.6 | 75 | 106 | 98 | 102 | 99.4 | 91.9 | 102 | 102 | 95.9 | 105 | 104 | 106 | 107 | 88.8 | 94.7 | 70 | > 10 | > 10 | > 10 | – | 0 | 2.4 | 0 | 0 | 2.1 | > 10
C[C@]12CC[C@@H](O)C[C@@H]1CC[C@@H]1[C@@H]2CC[C@]2(C)C(c3ccccc3)=CC[C@@H]12 [17-PA] | 95 | 87.9 | 87.5 | 104 | 82.6 | – | – | – | – | – | 98.1 | 89.2 | 99.6 | 93 | 107 | 96.1 | 101 | 96.4 | 103 | 102 | 101 | 106 | 94.2 | 94.7 | 99.8 | > 10 | > 10 | > 10 | > 10 | 0.3 | – | 0 | 0 | 0 | –
CN(c1ccc(NC(=O)Nc2ccccc2)cc1)S(=O)(=O)c1cnn(-c2ccc(F)cc2)c1 [BTT-3033] | 101 | 115 | 96.3 | 109 | 100 | – | – | – | – | – | – | – | – | – | – | 104 | 104 | 101 | 111 | 99.8 | 96.7 | 104 | 97.6 | 97.5 | 106 | > 10 | – | > 10 | > 10 | 0 | – | – | 0 | 0 | –
C[C@@H](N[C@H]1CCCC[C@@H]1NC(=O)c1ccc(Cl)cc1)c1cccc2ccccc12 [Calhex-231] | 104 | 91.7 | 91.6 | 102 | 92.9 | 97.9 | 101 | 95.7 | 97.9 | 68.6 | 103 | 104 | 102 | 98.9 | 93.4 | 98.7 | 96.2 | 99.8 | 94.1 | 87.3 | 91.9 | 108 | 95.9 | 109 | 85.8 | > 10 | > 10 | > 10 | > 10 | 0 | 1.7 | 0 | 0.3 | 0.1 | –
COc1ccc(S(=O)(=O)N(C(C)=O)c2ccccc2/C=C/c2cc[n+]([O-])cc2)cc1 [HMN-214] | 105 | 89.6 | 94.2 | 60.3 | 48.4 | 98.4 | 105 | 98.1 | 40.3 | 38 | 94.6 | 97.9 | 99.8 | 41.8 | 41 | 97.5 | 95.8 | 96.9 | 51.9 | 29.3 | 101 | 95 | 105 | 71.5 | 60.4 | 0.41 | 0.324 | 0.634 | – | 8 | 11.3 | 10.7 | 9.8 | 5.3 | 0.323
Cc1ccc(-c2csc(NC(=O)c3ccccc3)n2)c(C)c1 [INH1] | 97.2 | 104 | 96.1 | 91.5 | 85.8 | 102 | 104 | 98.8 | 104 | 58.7 | 102 | 96.8 | 98.4 | 97.5 | 91.1 | 94.7 | 101 | 95.3 | 96.3 | 96.6 | 96.9 | 102 | 101 | 107 | 98.3 | > 10 | > 10 | > 10 | > 10 | 0.4 | 1.8 | 0 | 0 | 0 | –
CC(=O)NC1=NN(C(C)=O)[C@](C)(c2ccccc2)S1 [K-858] | 106 | 102 | 91.3 | 102 | 71 | 98.8 | 101 | 98.7 | 106 | 39.2 | 103 | 103 | 99 | 96.2 | 42.2 | 97 | 96.5 | 97.6 | 98.3 | 63.9 | 108 | 93 | 96.3 | 101 | 91.5 | – | 2.63 | – | > 10 | 1.1 | 2.9 | 3.7 | 2 | 0 | 3.65
Cc1ccccc1CN1C2=NCCN2C(=O)C2=C1CCN(Cc1ccccc1)C2 [TIC10] | 110 | 106 | 104 | 93.7 | 103 | – | – | – | – | – | 107 | 106 | 98.8 | 99.5 | 103 | – | – | – | – | – | 98.9 | 99.7 | 98 | 102 | 92.4 | > 10 | > 10 | – | > 10 | 0 | – | 0 | – | 0 | –
CC(=O)O[C@H]1CC[C@@]2(C)C(=CC[C@@H]3[C@@H]2CC[C@]2(C)C(c4cccnc4)=CC[C@@H]32)C1 [abiraterone-acetate] | 97.1 | 99.8 | 95.5 | 92.8 | 92.6 | – | – | – | – | – | – | – | – | – | – | 101 | 100 | 99.5 | 95.8 | 102 | 98.3 | 102 | 96.6 | 87.8 | 107 | > 10 | – | > 10 | > 10 | 0 | – | – | 0 | 0 | –
